Data: US20250215029A1 (Recludix Pharma, Inc., priority 2022, published 2025)
Where two headings read alike, the source gives them in different places.

Tests used:
pY641-STAT6 in PBMC = target: T1, pY641-STAT6 in PBMC (Homo sapiens, UniProt P42226); experiment: MSD-pSTAT-PBMC Assay (pSTAT6, IL-4 stimulated); type: cell-based; details: compound 3 hrs, then 1 ng/mL IL-4 for 10 min
T1 construct: Cryopreserved Peripheral Blood Mononuclear Cells (PBMC) are from AllCells; host or cells: cryopreserved PBMC
T1 sequence (P42226 1-847): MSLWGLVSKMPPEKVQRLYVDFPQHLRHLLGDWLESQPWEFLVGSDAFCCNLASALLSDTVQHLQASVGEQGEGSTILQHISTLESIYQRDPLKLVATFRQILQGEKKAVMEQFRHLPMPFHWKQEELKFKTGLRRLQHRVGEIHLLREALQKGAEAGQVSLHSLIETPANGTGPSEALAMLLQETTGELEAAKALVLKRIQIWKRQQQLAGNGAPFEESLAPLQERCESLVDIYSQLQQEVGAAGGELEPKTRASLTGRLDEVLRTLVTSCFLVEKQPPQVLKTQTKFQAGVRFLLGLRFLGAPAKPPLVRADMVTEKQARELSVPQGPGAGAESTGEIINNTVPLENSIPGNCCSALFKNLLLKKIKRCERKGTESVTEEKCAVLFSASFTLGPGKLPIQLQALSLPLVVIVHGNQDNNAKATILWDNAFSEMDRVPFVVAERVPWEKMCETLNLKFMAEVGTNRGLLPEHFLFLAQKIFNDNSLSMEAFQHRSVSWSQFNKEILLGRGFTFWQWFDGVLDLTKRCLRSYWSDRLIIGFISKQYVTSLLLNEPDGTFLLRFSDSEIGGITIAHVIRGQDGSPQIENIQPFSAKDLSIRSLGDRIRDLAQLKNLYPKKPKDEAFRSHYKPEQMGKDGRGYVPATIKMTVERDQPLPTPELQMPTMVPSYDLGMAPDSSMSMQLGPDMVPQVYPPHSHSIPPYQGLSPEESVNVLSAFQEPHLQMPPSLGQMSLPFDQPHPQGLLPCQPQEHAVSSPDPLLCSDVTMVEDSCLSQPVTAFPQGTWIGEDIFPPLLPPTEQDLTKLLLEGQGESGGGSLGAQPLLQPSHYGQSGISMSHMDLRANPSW
How it was run: (§1)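 MSD electrochemiluminescence read-out: total STAT captured, probed with anti-pY641-STAT6 or anti-pY705-STAT3. Human PBMC, 3 h compound pretreatment, 10 min stimulation (IL-4 1 ng/mL or IL-6 10 ng/mL). Unstimulated signal subtracted, DMSO-normalized, variable-slope IC50.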

pY705-STAT3 in PBMC = target: T2, pY705-STAT3 in PBMC (Homo sapiens, UniProt P40763); experiment: MSD-pSTAT-PBMC Assay (pSTAT3, IL-6 stimulated); type: cell-based; details: PBMC, compound 3 hrs, then 10 ng/mL IL-6 for 10 min
T2 construct: Cryopreserved Peripheral Blood Mononuclear Cells (PBMC) are from AllCells; host or cells: cryopreserved PBMC
T2 sequence (P40763 whole entry): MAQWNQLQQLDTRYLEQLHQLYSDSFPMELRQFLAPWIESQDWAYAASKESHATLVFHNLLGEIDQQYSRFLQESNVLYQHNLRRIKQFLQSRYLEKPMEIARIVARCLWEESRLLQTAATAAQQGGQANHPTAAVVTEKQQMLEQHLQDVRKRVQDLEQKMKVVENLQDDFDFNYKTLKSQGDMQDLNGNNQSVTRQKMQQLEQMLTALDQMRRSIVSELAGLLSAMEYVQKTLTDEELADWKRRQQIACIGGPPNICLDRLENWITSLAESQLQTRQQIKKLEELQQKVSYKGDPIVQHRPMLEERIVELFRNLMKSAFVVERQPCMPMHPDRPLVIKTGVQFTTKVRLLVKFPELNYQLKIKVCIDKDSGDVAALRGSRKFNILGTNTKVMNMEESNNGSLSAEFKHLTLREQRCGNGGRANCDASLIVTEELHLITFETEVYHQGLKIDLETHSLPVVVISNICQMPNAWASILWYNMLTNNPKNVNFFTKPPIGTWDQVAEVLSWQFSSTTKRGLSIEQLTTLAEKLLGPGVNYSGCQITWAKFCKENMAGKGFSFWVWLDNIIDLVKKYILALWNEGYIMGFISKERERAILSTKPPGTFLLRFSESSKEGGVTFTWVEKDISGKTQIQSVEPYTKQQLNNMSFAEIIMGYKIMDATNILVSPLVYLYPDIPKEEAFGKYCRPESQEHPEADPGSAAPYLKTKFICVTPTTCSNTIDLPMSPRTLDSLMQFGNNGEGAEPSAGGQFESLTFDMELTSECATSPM
How it was run: as §1

[1] = PBMC, Table 1114, read-out: pSTAT6

IC50 (pY641-STAT6 in PBMC; [1]) [nM]	IC50 (pY705-STAT3 in PBMC; Table 1114, read-out: pSTAT3) [nM]	SMILES	other results
> 3000	< 100	CC(C)(C)C(=O)OCOP(=O)(OCOC(=O)C(C)(C)C)C(F)(F)c1ccc2sc(C(=O)N[C@@]3(C)CCCC[C@H]4CC[C@@H](C(=O)N5CC(C(=O)N6CCOCC6)C5)N4C3=O)cc2c1 [Compound 186, (((difluoro(2-(((3S,6S, 10aS)-6-methyl-3-(3-(morpholine-4-carbonyl)azetidine-1-carbonyl)-5-oxodeca-hydropyrrolo [1,2-a]azocin-6-yl)carbamoyl)benzo[b]thiophen-5-yl)methyl)phosphoryl)bis (oxy))bis (methylene) bis(2,2-dimethyl-propanoate)]	
1000 to 3000	< 100	CC(C)(C)C(=O)OCOP(=O)(OCOC(=O)C(C)(C)C)C(F)(F)c1ccc2sc(C(=O)N[C@H]3CCC[C@H]4CC[C@@H](C(=O)N5CC(C(=O)N6CCOCC6)C5)N4C3=O)cc2c1 [Compound 187, (((difluoro(2-(((3S,6S,9aS)-3-(3-(morpholine-4-carbonyl)azetidine-1-carbonyl)-5-oxooctahydro-1H-pyrrolo[1,2-a]azepin-6-yl)carbamoyl)benzo[b]thiophen-5-yl)methyl)phosphoryl)bis (oxy))bis (methylene) bis(2,2-dimethyl-propanoate)]	
100 to 1000	< 100	CC(C)(C)C(=O)OCOP(=O)(OCOC(=O)C(C)(C)C)C(F)(F)c1ccc2sc(C(=O)N[C@H]3CCC[C@H]4CC[C@@H](C(=O)N5CC(c6ccccn6)C5)N4C3=O)cc2c1 [Compound 188, (((difluoro(2-(((3S,6S,9aS)-5-oxo-3-(3-(pyridin-2-yl)azetidine-1-carbonyl)octahydro-1H-pyrrolo[1,2-a]azepin-6-yl)carbamoyl)benzo[b]thiophen-5-yl)methyl)phosphoryl)bis (oxy))bis (methylene) bis(2,2-dimethyl-propanoate)]	
> 3000	< 100	CC(C)(C)C(=O)OCOP(=O)(OCOC(=O)C(C)(C)C)C(F)(F)c1ccc2sc(C(=O)N[C@H]3CCC[C@H]4CC[C@@H](C(=O)N5CC(c6cccnc6)C5)N4C3=O)cc2c1 [Compound 189, (((difluoro(2-(((3S,6S,9aS)-5-oxo-3-(3-(pyridin-3-yl)azetidine-1-carbonyl)octahydro-1H-pyrrolo[1,2-a]azepin-6-yl)carbamoyl)benzo[b]thiophen-5-yl)methyl)phosphoryl)bis (oxy))bis (methylene) bis(2,2-dimethyl-propanoate)]	
100 to 1000	< 100	CC(C)(C)C(=O)OCOP(=O)(OCOC(=O)C(C)(C)C)C(F)(F)c1ccc2sc(C(=O)N[C@H]3CCCC[C@H]4CC[C@@H](C(=O)N5CC6(CN(C(=O)Cc7ccccc7)C6)C5)N4C3=O)cc2c1 [Compound 191, (((difluoro(2-(((3S,6S,10aS)-5-oxo-3-(6-(2-phenylacetyl)-2,6-diazaspiro[3. 3]heptane-2-carbonyl)decahydro-pyrrolo [1,2-a]azocin-6-yl)carbamoyl)benzo[b]thiophen-5-yl)methyl)phosphoryl)bis (oxy))bis (methylene) bis(2,2-dimethyl-propanoate)]	
1000 to 3000	100 to 1000	CC(C)(C)C(=O)OCOP(=O)(OCOC(=O)C(C)(C)C)C(F)(F)c1ccc2sc(C(=O)N[C@H]3CCCC[C@H]4CC[C@@H](C(=O)N5CCN(C(=O)c6cn[nH]c6)CC5)N4C3=O)cc2c1 [Compound 192, ((((2-(((3S,6S,10aS)-3-(4-(1H-pyrazole-4-carbonyl)piperazine-1-carbonyl)-5-oxodecahydro-pyrrolo[1,2-a]azocin-6-yl)carbamoyl)benzo[b]thiophen-5-yl)difluoro-methyl)phos-phoryl)bis(oxy)) bis(methylene) bis(2,2-dimethyl-propanoate)]	

Further lines, the compound ahead of its results:

SMILES	IC50 (pY641-STAT6 in PBMC; [1]) [nM]	IC50 (pY705-STAT3 in PBMC; Table 1114, read-out: pSTAT3) [nM]	other results
CC(C)(C)C(=O)SCCOP(=O)(OCCSC(=O)C(C)(C)C)C(F)(F)c1ccc2sc(C(=O)N[C@H]3CCCC[C@H]4CC[C@@H](C(=O)N5CC(c6c[nH]cn6)C5)N4C3=O)cc2c1 [Compound 182, S,S′-(((3S,6S,10aS)-3-(3-(1H-imidazol-4-yl)azetidine-1-carbonyl)-5-oxodecahydropyrrolo [1,2-a]azocin-6-yl)carbamoyl)benzo[b] thiophen-5-yl) difluoromethyl) phosphoryl)bis(oxy)) bis(ethane-2,1-diyl)) bis(2,2-dimethylpropanethioate)]	1000 to 3000	< 100	
CC(C)OC(=O)[C@H](C)NP(=O)(Cc1ccc2sc(C(=O)N[C@H]3CCC[C@H]4CC[C@@H](C(=O)N5CC(c6cccnc6)C5)N4C3=O)cc2c1)Oc1ccccc1 (stereo partly drawn) [Compound 195, isopropyl (((2-(((3S,6S,9aS)-5-oxo-3-(3-(pyridin-3-yl)azetidine-1-carbonyl)octa-hydro-1H-pyrrolo[1,2-a]azepin-6-yl)carbamoyl)benzo[b]thiophen-5-yl)methyl) (phenoxy)phosphoryl)-L-alaninate]		100 to 1000	IC50 (pY641-STAT6 in PBMC; pSTAT6, PBMC, Table 1114): > 3000 nM
CC(C)OC(=O)[C@H](C)NP(=O)(Oc1ccccc1)C(F)c1ccc2sc(C(=O)N[C@H]3CCC[C@H]4CC[C@@H](C(=O)N5CC(c6cccnc6)C5)N4C3=O)cc2c1 (stereo partly drawn) [Compound 196, isopropyl ((fluoro(2-(((3S,6S,9aS)-5-oxo-3-(3-(pyridin-3-yl)azetidine-1-carbonyl)octahydro-1H-pyrrolo[1,2-a]azepin-6-yl)carbamoyl)benzo[b]thiophen-5-yl)methyl) (phenoxy)phosphoryl)-L-alaninate]		100 to 1000	IC50 (pY641-STAT6 in PBMC; pSTAT6, PBMC, Table 1114): > 3000 nM
CC(C)(CO)C(=O)SCCOP(=O)(Oc1ccccc1)C(F)(F)c1ccc2sc(C(=O)N[C@H]3CCC[C@H]4CC[C@@H](C(=O)N5CC(c6cccnc6)C5)N4C3=O)cc2c1 (stereo partly drawn) [Compound 201, S-(2-(((difluoro(2-(((3S,6S,9aS)-5-oxo-3-(3-(pyridin-3-yl)azetidine-1-carbonyl)octahydro-1H-pyrrolo[1,2-a]azepin-6-yl)carbamoyl)benzo[b]thiophen-5-yl)methyl) (phenoxy)phosphoryl)oxy)ethyl) 3-hydroxy-2,2-dimethyl-propanethioate]		100 to 1000	IC50 (pY641-STAT6 in PBMC; pSTAT6, PBMC, Table 1114): > 3000 nM
CC(C)(C)C(=O)OCOP(=O)(OCOC(=O)C(C)(C)C)C(F)(F)c1ccc2sc(C(=O)N[C@H]3CCCC4CC[C@@H](C(=O)N5CC(N6CCOCC6)C5)N4C3=O)cc2c1 (stereo partly drawn) [Compound 249, (((difluoro(2-(((3S,6S)-3-(3-morpholinoazetidine-1-carbonyl)-5-oxooctahydro-1H-pyrrolo[1,2-a]azepin-6-yl)carbamoyl)benzo [b]thiophen-5-yl)methyl)phosphoryl)bis(oxy))bis (methylene) bis(2,2-dimethylpropanoate)]			IC50 (pY641-STAT6 in PBMC; PBMC, Table 115, read-out: STAT6): 100 to 1000 nM; IC50 (pY705-STAT3 in PBMC; Table 115, read-out: STAT3): < 100 nM
CCCOC(=O)[C@H](C)NP(=O)(Cc1ccc2sc(C(=O)N[C@H]3CCC[C@H]4CC[C@@H](C(=O)N5CCC(c6cccnc6)C5)N4C3=O)cc2c1)Oc1ccccc1 (stereo partly drawn) [Compound 252, propyl (((2-(((3S,6S,9aS)-5-oxo-3-(3-(pyridin-3-yl)pyrrolidine-1-carbonyl)octahydro-1H-pyrrolo[1,2-a]azepin-6-yl)carbamoyl)benzo [b]thiophen-5-yl)methyl)(phenoxy)phosphoryl)-L-alaninate]			IC50 (pY641-STAT6 in PBMC; STAT6, PBMC, Table 115): 100 to 1000 nM; IC50 (pY705-STAT3 in PBMC; Table 115, read-out: STAT3): 1000 to 3000 nM
CCCOC(=O)[C@H](C)NP(=O)(Cc1ccc2sc(C(=O)N[C@H]3CCCC[C@H]4CC[C@@H](C(=O)N5CCC(c6cccnc6)C5)N4C3=O)cc2c1)Oc1ccccc1 (stereo partly drawn) [Compound 253, propyl (((2-(((3S,6S,10aS)-5-oxo-3-(3-(pyridin-3-yl)pyrrolidine-1-carbonyl)decahydropyrrolo[1,2-a]azocin-6-yl)carbamoyl)benzo [b]thiophen-5-yl)methyl)(phenoxy)phosphoryl)-L-alaninate]			IC50 (pY641-STAT6 in PBMC; STAT6, PBMC, Table 115): 100 to 1000 nM; IC50 (pY705-STAT3 in PBMC; Table 115, read-out: STAT3): > 3000 nM
